Assay [1] addresses T1, cytochrome P450 3A4 (CYP3A4) (Homo sapiens, UniProt P08684).
T1 construct: Δ3-22 CYP3A4
Kind of assay: equilibrium spectral titration, Hill fit (S50; nH […]). In kind it is binding.

Assay [2] deals with T2, cytochrome P450 3A4 (CYP3A4) (Homo sapiens, UniProt P08684, F219A).
T2 construct: Δ3-22 CYP3A4
Described as above. In kind it is binding.

Experimental findings from article PMC10470200 (The Journal of Biological Chemistry, 2023) are described below.

T1 sequence (P08684 23-503): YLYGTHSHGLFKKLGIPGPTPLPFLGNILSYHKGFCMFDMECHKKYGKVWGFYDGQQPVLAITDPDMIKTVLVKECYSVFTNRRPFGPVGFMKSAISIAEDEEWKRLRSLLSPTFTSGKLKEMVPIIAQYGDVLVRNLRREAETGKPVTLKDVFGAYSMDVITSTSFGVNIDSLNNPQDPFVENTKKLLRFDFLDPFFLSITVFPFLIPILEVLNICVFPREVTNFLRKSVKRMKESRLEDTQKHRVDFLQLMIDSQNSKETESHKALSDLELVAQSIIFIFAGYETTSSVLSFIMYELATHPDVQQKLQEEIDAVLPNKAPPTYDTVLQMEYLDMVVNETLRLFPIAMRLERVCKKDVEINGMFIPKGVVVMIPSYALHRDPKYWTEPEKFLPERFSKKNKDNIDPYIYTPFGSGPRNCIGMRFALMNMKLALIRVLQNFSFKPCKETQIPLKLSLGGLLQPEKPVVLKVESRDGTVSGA
T2 sequence (P08684 23-503 F219A): as the sequence (P08684 23-503) above, with F197A counted along it

Consider `CC(=O)[C@H]1CC[C@H]2[C@@H]3CCC4=CC(=O)CC[C@]4(C)[C@H]3CC[C@]12C` [PRG, progesterone], for which the values for the dissociation constant Kd in assay [1] and in assay [2] were 103 ± 3 µM and 158 ± 9 µM, respectively.
